Target: T1, ERAAP (ER aminopeptidase associated with antigen processing) (Mus musculus, UniProt Q9EQH2)
T1 sequence (Q9EQH2 1-930): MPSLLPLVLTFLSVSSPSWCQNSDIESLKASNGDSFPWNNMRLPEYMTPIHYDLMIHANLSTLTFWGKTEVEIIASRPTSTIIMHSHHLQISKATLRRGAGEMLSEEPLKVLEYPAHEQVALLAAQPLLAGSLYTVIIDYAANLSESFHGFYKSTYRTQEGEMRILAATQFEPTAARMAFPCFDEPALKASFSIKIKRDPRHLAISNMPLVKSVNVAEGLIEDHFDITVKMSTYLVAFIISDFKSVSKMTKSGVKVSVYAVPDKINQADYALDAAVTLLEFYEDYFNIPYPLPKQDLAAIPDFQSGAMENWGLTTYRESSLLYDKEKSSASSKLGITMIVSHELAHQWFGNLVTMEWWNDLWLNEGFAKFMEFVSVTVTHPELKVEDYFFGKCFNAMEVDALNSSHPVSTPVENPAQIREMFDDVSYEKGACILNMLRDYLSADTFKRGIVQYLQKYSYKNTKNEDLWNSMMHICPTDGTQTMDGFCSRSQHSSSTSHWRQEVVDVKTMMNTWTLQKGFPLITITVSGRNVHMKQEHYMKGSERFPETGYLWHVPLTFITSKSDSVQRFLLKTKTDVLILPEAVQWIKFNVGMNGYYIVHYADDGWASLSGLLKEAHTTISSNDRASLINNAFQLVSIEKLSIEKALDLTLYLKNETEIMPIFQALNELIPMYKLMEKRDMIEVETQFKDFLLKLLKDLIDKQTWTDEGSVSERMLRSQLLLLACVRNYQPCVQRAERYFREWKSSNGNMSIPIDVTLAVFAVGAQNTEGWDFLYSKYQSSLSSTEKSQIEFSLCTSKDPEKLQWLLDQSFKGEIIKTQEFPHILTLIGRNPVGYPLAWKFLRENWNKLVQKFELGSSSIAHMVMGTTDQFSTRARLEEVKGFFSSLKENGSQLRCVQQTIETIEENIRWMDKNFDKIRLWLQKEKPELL
Assay: fluorogenic Ep peptide cleavage assay, dose-response
Assay type: biochemical

C#CC(=O)c1ccc(Br)cc1F [A, 1-(4-bromo-2-fluorophenyl)prop-2-yn-1-one]
IC50: 23 µM

— paper PMC6092045 (Chemical communications (Cambridge, England), 2018)
